Laboratory results: patent US20250228239A1, “MOLECULES HAVING PESTICIDAL UTILITY, AND INTERMEDIATES, COMPOSITIONS, AND PROCESSES, RELATED THERETO” (priority 2024, published 2025)
Read-outs that look alike come from different tables or passages of the source.

Assays:
Assay type in all cases: in vivo
[1] = test system: Beet Armyworm (Spodoptera exigua, LAPHEG); experiment: Bioassays on Beet Armyworm (BAW), 128-well diet tray assay; details: Spodoptera exigua, Beet Armyworm
In short: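 Eight diet wells per compound were treated at 50 μg/cm^2 (acetone-water 90:10), dried, then infested with 1–5 second-instar larvae each. After five to seven days at 25 °C under 14:10 photoperiod, mortality was scored and averaged across wells.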

[2] = test system: Cabbage Looper (Trichoplusia ni, TRIPNI); experiment: Bioassays on Cabbage Looper (CL), 128-well diet tray assay; details: Trichoplusia ni, Cabbage Looper
In short: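 One to five second-instar larvae per well on artificial diet surface-treated with 50 μg/cm^2 test molecule (applied in 90:10 acetone-water, dried). Held 5–7 days at 25° C, 14:10 light-dark; percent mortality recorded per well and averaged over eight wells.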

[3] = test system: Yellow Fever Mosquito (Aedes aegypti, AEDSAE); details: Yellow Fever Mosquito; for YFM rating: Table ABC / ABC-DP rating
In short: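 Compounds from DMSO master plates (4000 ppm stock) diluted in 90:10 water/acetone, then dispensed into six replicate plates and infested with ~1-day-old Aedes aegypti larvae in liver-powder water. Held covered at room temperature for 3 days; each well scored for larval mortality and graded on a rating scale.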

[4] = Table ABC / ABC-DP rating, read-out: BAW rating
[5] = Table ABC / ABC-DP rating, read-out: CL rating

SMILES | pest or weed control at 50 µg/cm2 ([1]; rating class, read-out: BAW) [%] | pest or weed control at 50 µg/cm2 ([2]; rating class, read-out: CL) [%] | YFM ([3]; rating class) | pest or weed control at 50 µg/cm2 [1, 4] [%] | pest or weed control at 50 µg/cm2 [2, 5] [%] | YFM rating [3]
CC(=O)Nc1cc(F)ccc1NC(=O)c1cc(NC(=O)[C@H]2[C@H](c3cc(Cl)cc(Cl)c3)C2(Cl)Cl)ccc1Cl (relative stereo) [F1637, trans-N-(2-Acetamido-4-fluorophenyl)-2-chloro-5-(2,2-dichloro-3-(3,5-dichlorophenyl)cyclopropane-1-carboxamido)benzamide] | 50 to 100 | 50 to 100 | B (More than 0 – Less than 80) | – | – | –
Nc1c(F)ccc(NC(=O)c2cc(NC(=O)[C@H]3[C@H](c4cc(C(F)(F)F)cc(C(F)(F)F)c4)C3(Cl)Cl)ccc2Cl)c1F (relative stereo) [F1791, trans-N-(3-Amino-2,4-difluorophenyl)-5-(3-(3,5-bis(trifluoromethyl)phenyl)-2,2-dichlorocyclopropane-1-carboxamido)-2-chlorobenzamide] | – | – | – | 50 to 100 | 50 to 100 | A (80–100)
O=C(Nc1ccc(F)c(NC(=O)C(F)(F)F)c1F)c1cc(NC(=O)[C@H]2[C@H](c3cc(C(F)(F)F)cc(C(F)(F)F)c3)C2(Cl)Cl)ccc1Cl (relative stereo) [F1801, trans-5-(3-(3,5-bis(Trifluoromethyl)phenyl)-2,2-dichlorocyclopropane-1-carboxamido)-2-chloro-N-(2,4-difluoro-3-(2,2,2-trifluoroacetamido)phenyl)benzamide] | – | – | – | 50 to 100 | 50 to 100 | A (80–100)
O=C(Nc1ccc(F)c(NC(=O)C(F)F)c1F)c1cc(NC(=O)[C@H]2[C@H](c3cc(C(F)(F)F)cc(C(F)(F)F)c3)C2(Cl)Cl)ccc1Cl (relative stereo) [F1802, trans-5-(3-(3,5-bis(Trifluoromethyl)phenyl)-2,2-dichlorocyclopropane-1-carboxamido)-2-chloro-N-(3-(2,2-difluoroacetamido)-2,4-difluorophenyl)benzamide] | – | – | – | 50 to 100 | 50 to 100 | A (80–100)
CC(=O)Nc1c(F)ccc(NC(=O)c2cc(NC(=O)[C@H]3[C@H](c4cc(C(F)(F)F)cc(C(F)(F)F)c4)C3(Cl)Cl)ccc2Cl)c1F (relative stereo) [F1803, trans-N-(3-Acetamido-2,4-difluorophenyl)-5-(3-(3,5-bis(trifluoromethyl)phenyl)-2,2-dichlorocyclopropane-1-carboxamido)-2-chlorobenzamide] | – | – | – | 50 to 100 | 50 to 100 | A (80–100)
O=C(COC(F)(F)F)Nc1c(F)ccc(NC(=O)c2cc(NC(=O)[C@H]3[C@H](c4cc(C(F)(F)F)cc(C(F)(F)F)c4)C3(Cl)Cl)ccc2Cl)c1F (relative stereo) [F1804, trans-5-(3-(3,5-bis(Trifluoromethyl)phenyl)-2,2-dichlorocyclopropane-1-carboxamido)-2-chloro-N-(2,4-difluoro-3-(2-(trifluoromethoxy)acetamido)phenyl)benzamide] | – | – | – | 50 to 100 | 50 to 100 | A (80–100)
O=C(Nc1ccc(F)c(NC(=O)C2CCCO2)c1F)c1cc(NC(=O)[C@H]2[C@H](c3cc(C(F)(F)F)cc(C(F)(F)F)c3)C2(Cl)Cl)ccc1Cl (relative stereo) [F1805, trans-N-(3-(5-(3-(3,5-bis(Trifluoromethyl)phenyl)-2,2-dichlorocyclopropane-1-carboxamido)-2-chlorobenzamido)-2,6-difluorophenyl)tetrahydrofuran-2-carboxamide] | – | – | – | 50 to 100 | 50 to 100 | A (80–100)
CCCC(=O)Nc1c(F)ccc(NC(=O)c2cc(NC(=O)[C@H]3[C@H](c4cc(C(F)(F)F)cc(C(F)(F)F)c4)C3(Cl)Cl)ccc2Cl)c1F (relative stereo) [F1806, trans-5-(3-(3,5-bis(Trifluoromethyl)phenyl)-2,2-dichlorocyclopropane-1-carboxamido)-N-(3-butyramido-2,4-difluorophenyl)-2-chlorobenzamide] | – | – | – | 50 to 100 | 50 to 100 | A (80–100)
